Reference: patent publication US20230323294A1, “DIFFERENTIATION OF CORTICAL NEURONS FROM HUMAN PLURIPOTENT STEM CELLS” (priority 2016, published 2023)

Columns and labels:
Format in all cases: cell-based, human
[1] = tested on: hPSCs; assay: Neuronal induction efficiency, intracellular flow cytometry for TUJ1; conditions: day 13
[2] = tested on: hPSCs; assay: Total cell / neuron yield in culture (FIG. 1G)
Source text: FIGS. 1A-1I depict illustrations, images and graphs showing the rapid induction of cortical neurons from human pluripotent stem cells using a combinatorial small molecule-based protocol. FIG. 1A is a schematic illustration of the pathway manipulations to generate neural crest versus forebrain fates and neural precursor versus accelerated neuronal fates. Protocols for the derivation of SOX10+ neural crest precursor, PAX6+ CNS precursors and BRN3A/ISL1+sensory neurons have been reported while the current invention is focused on a strategy for the rapid induction of cortical neurons. […] FIG. 1C depicts graphs of the time-course quantitative analyses of CNS (PAX6::H2B-GFP, left), NC (SOX10::GFP, middle) and placode (SIX1::H2B-GFP, right) induction under the various protocols. […] FIG. 1F is a graph showing the quantification of the TUJ1 data from FIGS. 1D and 1E at day 13 of differentiation by intracellular flow. […] FIG. 1G depicts graphs of the P and S single and combinatorial dose response analyses based on quantification of the percentages of NESTIN+ and TUJ1+ cells by intracellular flow cytometry (upper), and an estimate of the total neurons in culture per cm^2 (for every hPSC plated at day 0 under P1S5D and P8S10D conditions, ˜0.7 and 0.2 neurons were obtained respectively at day 13). […]

[3] = tested on: AMPA receptors; assay: Spontaneous excitatory postsynaptic currents (sEPSCs) recording; conditions: P1S5D+none conditions at day 40
[4] = tested on: hPSCs; assay: Proliferation (pH3) and cell death (cleaved Caspase 3) after P/S/D treatment; conditions: for cell proliferation (phospho-Histone 3): as early as 24 hrs after P/S treatment (day 3)
Source text: (a) Percentage of mitotic cells expressing phospho-histone 3 (pH3) among total cells at one day after P/S/D treatment (day 3 of differentiation). (b) Percentage of apoptotic cells expressing cleaved caspase 3 (CC3) among total cells at one day after P/S/D treatment (day 3 of differentiation). The conditions highlighted in the dashed line boxes in a,b are the P1 dosage groups aligned by ascending order of S concentration. For a,b, N=4 randomly selected photo frames from each of the 2 independent batches of cell cultures. Statistical analysis was carried out using the Dunnett's multiple comparison test to compare each dosage with LSB+X at day 3 of differentiation. […] (c) Summary of grouped results in a following the order of increasing concentration of P, or increasing concentration of S (d). (e) Summary of grouped results in b following the order of increasing concentration of P, or increasing concentration of S (f). […] Black dots represent values from quantification of individual photos frames. […]
Increased total neuron yields were obtained when lower PD concentrations were combined with SU exposure in an effort to balance neuronal induction efficiency and overall cell toxicity. […] To understand whether reduced yield is due to rapid cell cycle exit or direct toxicity, we measured phospho-Histone 3 (pH3) and cleaved Caspase 3 (CC3) as markers of cell proliferation and death, respectively. […]
EdU was added to the cultures at 5 μM for a window of 48 hrs each starting at various time points of differentiation (day 8, 13, 18, 23, 28, 33), and the cells were fixed at day 40 with 4% paraformaldehyde for 20 mins. EdU was detected with the Click-iT EdU Imaging Kit (Invitrogen) according to the specifications of the manufacturer. Quantification of EdU positive and cortical layer marker positive neurons in the EdU labeling experiments, and the quantification of marker positive neurons and total cells in the long-term culture was carried out using ImageJ with ITCN plugin for nuclei quantification, combined with manual counting. […] All quantification results were plotted in Prism (version 6.0, GraphPad).

[5] = tested on: hPSCs; assay: qRT-PCR gene expression analysis during differentiation; conditions: forebrain marker, day 13
Method: Cells were lysed with Trizol Reagent (Life Technology) and stored in -20° C. Total RNA was extracted using phenol/chloroform and isopropanol precipitation, and dissolved in ddH2O. cDNA was made using the QuantiTech Reverse Transcription Kit (Qiagen). Quantitative RT-PCR was performed using the Mastercycler […]×2 (Eppendorf), and GAPDH was used as the housekeeping gene control for normalization. Delta Delta Ct and fold changes were calculated and results were plotted in Prism (version 6.0, GraphPad).

[6] = tested on: hPSC-derived neurons; assay: Survival of cultures maintained in P/S/D in the final differentiation step; conditions: 3 uM
[7] = tested on: sodium channel
[8] = additional treatment on top of PD and SU

`C[C@H](NC(=O)Cc1cc(F)cc(F)c1)C(=O)N[C@H](C(=O)OC(C)(C)C)c1ccccc1` [DAPT] was tested, and the “efficiency of neuronal induction” value [1, 8] was “further increased” and the “effect on overall neuron yield” value [2, 8] was “did not negatively affect overall neuron yield”.

In the case of `NS(=O)(=O)c1cccc2c1c([N+](=O)[O-])cc1nc(O)c(O)nc12` [NBQX], the “spontaneous excitatory postsynaptic currents (sEPSCs)” value [3] is reported as “inhibited”.

For `O=C(NOC[C@H](O)CO)c1ccc(F)c(F)c1Nc1ccc(I)cc1F` [PD0325901, N-(2,3-dihydroxy-propoxy)-3,4-difluoro-2-(2-fluoro-4-iodo-phenylamino)-benzamide], the “cell proliferation (phospho-Histone 3)” value [4] was “reduced cell proliferation”, the “TUJ1+%” value ([1]; added to LSB+X, at high concentrations) was > 50% and the “yield in total cell numbers” value ([2]; at high concentrations, suggesting toxicity) was “low yield in total cell numbers”. The FOXG1 induction [5] was “reduced the efficiency of FOXG1 induction”.

With `Cc1c[nH]c(-c2cnc(NCCNc3ccc(C#N)cn3)nc2-c2ccc(Cl)cc2Cl)n1` [CHIR] the “effect on survival of cultures maintained in P/S/D” value [6] was “strong pro-survival effect”.

With `NC1=N[C@H](O)[C@H]2[C@H]3O[C@]4(O)O[C@@H]([C@@H](O)[C@@]2(N1)[C@@H]4O)[C@]3(O)CO` [Tetrodotoxin] the “voltage-dependent sodium channel responses” value [7] was “blocked”.

In the case of `Cc1c[nH]c(/C=C2\C(=O)Nc3ccccc32)c1CCC(=O)O` [SU5402, 2-[(1,2-Dihydro-2-oxo-3H-indol-3-ylidene)methyl]-4-methyl-1H-pyrrole-3-pr-opanoic acid], the “cell proliferation (phospho-Histone 3)” value [4] is reported as “reduced cell proliferation” and the “cell death (cleaved Caspase 3)” value ([4]; one day after P/S/D treatment (day 3)) is reported as “observed only at high doses”.
